Results from BigSolDB 2.1.

COc1ccc(P(=O)(c2ccc(OC)cc2)c2ccc(OC)cc2)cc1
Conditions | solubility (mole fraction)
in 2-butanone, 288.15 K | 0.00567
in 2-butanone, 293.16 K | 0.00642
in 2-butanone, 298.17 K | 0.00725
in 2-butanone, 303.18 K | 0.00814
in 2-butanone, 308.14 K | 0.00907
in 2-butanone, 313.16 K | 0.0102
in 2-butanone, 318.17 K | 0.0112
in 2-butanone, 323.16 K | 0.0125
in 2-butanone, 328.17 K | 0.0139
in 2-butanone, 333.16 K | 0.0153
in 2-ethoxyethanol, 293.16 K | 0.00573
in 2-ethoxyethanol, 298.17 K | 0.00716
in 2-ethoxyethanol, 303.18 K | 0.00919
in 2-ethoxyethanol, 308.14 K | 0.0114
in 2-ethoxyethanol, 313.16 K | 0.0143
in 2-ethoxyethanol, 318.17 K | 0.0175
in 2-ethoxyethanol, 323.16 K | 0.0223
in 2-ethoxyethanol, 328.17 K | 0.0276
in 2-ethoxyethanol, 333.17 K | 0.033
in 2-ethoxyethanol, 338.25 K | 0.0401
in 2-ethoxyethanol, 343.17 K | 0.0482
in benzene, 293.16 K | 0.00031
in benzene, 298.17 K | 0.00039
in benzene, 303.18 K | 0.00048
in benzene, 308.14 K | 0.00061
in benzene, 313.16 K | 0.00076
in benzene, 318.17 K | 0.00094
in benzene, 323.16 K | 0.00112
in cyclohexane, 298.15 K | 0.00053
in cyclohexane, 304.05 K | 0.00082
in cyclohexane, 308.32 K | 0.00113
in cyclohexane, 313.95 K | 0.00166
in cyclohexane, 318.45 K | 0.00229
in cyclohexane, 323.65 K | 0.00322
in cyclohexane, 328.45 K | 0.00455
in cyclohexane, 332.85 K | 0.00589
in cyclohexane, 337.65 K | 0.00806
in diethyl ether, 293.16 K | 0.00607
in diethyl ether, 296.17 K | 0.00739
in diethyl ether, 299.18 K | 0.00929
in diethyl ether, 301.16 K | 0.0106
in diethyl ether, 303.15 K | 0.0118
in ethanol, 298.25 K | 0.00037
in ethanol, 303.75 K | 0.00049
in ethanol, 308.05 K | 0.00067
in ethanol, 313.35 K | 0.00102
in ethanol, 317.75 K | 0.00128
in ethanol, 322.35 K | 0.00168
in ethanol, 328.15 K | 0.00236
in methanol, 293.35 K | 0.00019
in methanol, 298.25 K | 0.00024
in methanol, 303.15 K | 0.00031
in methanol, 308.05 K | 0.00042
in methanol, 313.15 K | 0.00056
in methanol, 318.15 K | 0.00071
in methanol, 322.65 K | 0.00098
in toluene, 293.16 K | 0.00036
in toluene, 298.17 K | 0.00045
in toluene, 303.18 K | 0.00055
in toluene, 308.14 K | 0.00066
in toluene, 313.16 K | 0.00083
in toluene, 318.17 K | 0.00099
in toluene, 323.16 K | 0.00121
in toluene, 328.17 K | 0.00143
in toluene, 333.15 K | 0.00169

O=P(O)(CO)c1ccccc1
Conditions | solubility (mole fraction)
in 2-butanone, 288.15 K | 0.0013
in 2-butanone, 293.16 K | 0.0015
in 2-butanone, 298.17 K | 0.0017
in 2-butanone, 303.18 K | 0.0019
in 2-butanone, 308.14 K | 0.0022
in 2-butanone, 313.16 K | 0.0024
in 2-butanone, 318.17 K | 0.0027
in 2-butanone, 323.16 K | 0.0029
in 2-butanone, 328.17 K | 0.0033
in 2-butanone, 333.16 K | 0.0037
in 2-ethoxyethanol, 293.16 K | 0.0461
in 2-ethoxyethanol, 298.17 K | 0.0512
in 2-ethoxyethanol, 303.18 K | 0.0571
in 2-ethoxyethanol, 308.14 K | 0.0638
in 2-ethoxyethanol, 313.16 K | 0.0709
in 2-ethoxyethanol, 318.17 K | 0.0777
in 2-ethoxyethanol, 323.16 K | 0.0849
in 2-ethoxyethanol, 328.16 K | 0.0937
in 2-ethoxyethanol, 333.15 K | 0.102
in acetone, 288.15 K | 0.0013
in acetone, 293.16 K | 0.0015
in acetone, 298.17 K | 0.0017
in acetone, 303.18 K | 0.002
in acetone, 308.14 K | 0.0023
in acetone, 313.16 K | 0.0026
in acetone, 318.17 K | 0.003
in acetone, 323.16 K | 0.0035
in benzene, 293.16 K | 0.0009
in benzene, 298.17 K | 0.0011
in benzene, 303.18 K | 0.0013
in benzene, 308.14 K | 0.0016
in benzene, 313.16 K | 0.0019
in benzene, 318.17 K | 0.0022
in benzene, 323.16 K | 0.0027
in benzene, 328.16 K | 0.0032
in benzene, 333.15 K | 0.0037
in cyclohexane, 288.15 K | 0.001
in cyclohexane, 293.16 K | 0.0011
in cyclohexane, 298.17 K | 0.0012
in cyclohexane, 303.18 K | 0.0013
in cyclohexane, 308.14 K | 0.0014
in cyclohexane, 313.16 K | 0.0015
in cyclohexane, 318.17 K | 0.0016
in cyclohexane, 323.16 K | 0.0017
in cyclohexane, 328.17 K | 0.0018
in cyclohexane, 333.16 K | 0.0019
in dichloromethane, 293.16 K | 0.00061
in dichloromethane, 296.17 K | 0.00079
in dichloromethane, 301.13 K | 0.00119
in dichloromethane, 303.14 K | 0.00143
in dichloromethane, 305.15 K | 0.00169
in diethyl ether, 293.16 K | 0.00113
in diethyl ether, 296.17 K | 0.00138
in diethyl ether, 301.13 K | 0.00188
in diethyl ether, 303.14 K | 0.00212
in diethyl ether, 305.15 K | 0.00238
in toluene, 288.15 K | 0.001
in toluene, 293.16 K | 0.0011
in toluene, 298.17 K | 0.0013
in toluene, 303.18 K | 0.0015
in toluene, 308.14 K | 0.0018
in toluene, 313.16 K | 0.002
in toluene, 318.17 K | 0.0023
in toluene, 323.16 K | 0.0026
in toluene, 328.17 K | 0.0029
in toluene, 333.16 K | 0.0033
in water, 307.45 K | 0.0099
in water, 317.46 K | 0.0206
in water, 327.57 K | 0.0424
in water, 338.15 K | 0.0966
in water, 342.45 K | 0.117
in water, 346.58 K | 0.166
in water, 352.8 K | 0.247
in water, 357.11 K | 0.312
